From US20090306122A1, “SUBSTITUTED TETRAHYDROPYRROLOQUINOLINE DERIVATIVES AS KINASE MODULATORS, ESPECIALLY OF TYROSINE AND RAF KINASES” (priority 2005, published 2009)

molecular target: T1, IGF1-R kinase (Homo sapiens, UniProt P08069); test: Assay for the determination of IGF1-R kinase inhibition (AlphaScreen); type: biochemical; details: ATP 1 μM, biotinylated poly Glu, Tyr 4:1
T1 construct: purchased ProQinase
Description: Assay for the Determination of IGF1-R Kinase Inhibition
Lit.: G. Warner et al., Current Medicinal Chemistry, 2004, 11, 721-730
Use is made of AlphaScreen technology [(Amplified Luminescent Proximity Homogenous Assay), PerkinElmer], which is based on the amplification of a signal generated on interaction of so-called donor and acceptor beads. The convergence of two molecules can be measured very sensitively via this system.
The AlphaScreen test is based on traditional kinase tests, with the exception that the kinase activity is detected non-radioactively.
The binding of molecules which have been captured on the beads results in energy transfer from one bead to the other, which ultimately results in a luminescence/fluorescence signal.
In the absence of IGF1-R kinase activity, no signal is detected.
The kinase phosphorylates the biotinylated polypeptide (poly Glu, Tyr, 4:1) on the tyrosine.
The phosphorylated biotinylated peptide binds to streptavidin donor beads (biotin-streptavidin binding). The anti-phospho-tyrosine P-Tyr-100 antibody bound to the acceptor beads binds to phospho-tyrosine via the antigen binding site, giving a complex of:
Donor bead-streptavidin <->biotin-phosphopeptide (P substrate)<->antiphospho antibody-acceptor bead
If light having a wavelength of 680 nm is incident, the donor beads produce singlet oxygen, which, on adequate spatial proximity of the acceptor beads (only on formation of complex), causes the latter to emit at 520/620 nm.
Test procedure: the test is carried out in a 384-well OptiPlate™-384 Art.: 6007290 from Perkin Elmer
IGF1-R, enzyme from “ProQinase” • IGF1-R, 20 μl • Final concentration: 0.5 ng of kinase/well • (in 50 mM MOPS assay buffer pH 7.0 (comprising 0.20 mM • EDTA; 5.0 mM MnCl2; 10 mM MgCl2; 0.002% of BriJ; 0.002% of 2-mercaptoethanol and 0.1% of BSA) • +Test substance or standard sample, 3.0 μl • are pipetted into MTP well, shaken briefly and pre-incubated.
Pre-incubation: 30 minutes at RT (with continuous gentle shaking)
ATP/biotinylated substrate mix, 10 μl is added • ATP adenosine 5′-triphosphate, disodium salt (Calbiochem)/biotinylated poly Glu, Tyr, 4:1 (from Perkin Elmer) • Final concentration of ATP: 1 μM • Final concentration of biotinylated poly Glu, Tyr, 4:1:1 nM • Shake briefly and incubate. • Incubation: 45 minutes at RT (with continuous gentle shaking) 3. • Beads, P-Tyr-100 acceptor beads; antiphosphotyrosine (P-Tyr-100) acceptor beads • and simultaneously Streptavidin donor beads, 20 μl, are pipetted into well in a darkened room and shaken briefly. • Final concentration: 5 μg/ml of beads • Acceptor/donor beads are prepared shortly in advance in AlphaScreen detection/stop buffer (25 mM HEPES buffer comprising 100 mM NaCl, 0.1% of BSA, 100 mM EDTA). • This is followed by • Incubation: 20 hours at RT in the dark • Measurement: on the fusion a screen in Alpha programme 1 sec.

T1 sequence (P08069 31-1367): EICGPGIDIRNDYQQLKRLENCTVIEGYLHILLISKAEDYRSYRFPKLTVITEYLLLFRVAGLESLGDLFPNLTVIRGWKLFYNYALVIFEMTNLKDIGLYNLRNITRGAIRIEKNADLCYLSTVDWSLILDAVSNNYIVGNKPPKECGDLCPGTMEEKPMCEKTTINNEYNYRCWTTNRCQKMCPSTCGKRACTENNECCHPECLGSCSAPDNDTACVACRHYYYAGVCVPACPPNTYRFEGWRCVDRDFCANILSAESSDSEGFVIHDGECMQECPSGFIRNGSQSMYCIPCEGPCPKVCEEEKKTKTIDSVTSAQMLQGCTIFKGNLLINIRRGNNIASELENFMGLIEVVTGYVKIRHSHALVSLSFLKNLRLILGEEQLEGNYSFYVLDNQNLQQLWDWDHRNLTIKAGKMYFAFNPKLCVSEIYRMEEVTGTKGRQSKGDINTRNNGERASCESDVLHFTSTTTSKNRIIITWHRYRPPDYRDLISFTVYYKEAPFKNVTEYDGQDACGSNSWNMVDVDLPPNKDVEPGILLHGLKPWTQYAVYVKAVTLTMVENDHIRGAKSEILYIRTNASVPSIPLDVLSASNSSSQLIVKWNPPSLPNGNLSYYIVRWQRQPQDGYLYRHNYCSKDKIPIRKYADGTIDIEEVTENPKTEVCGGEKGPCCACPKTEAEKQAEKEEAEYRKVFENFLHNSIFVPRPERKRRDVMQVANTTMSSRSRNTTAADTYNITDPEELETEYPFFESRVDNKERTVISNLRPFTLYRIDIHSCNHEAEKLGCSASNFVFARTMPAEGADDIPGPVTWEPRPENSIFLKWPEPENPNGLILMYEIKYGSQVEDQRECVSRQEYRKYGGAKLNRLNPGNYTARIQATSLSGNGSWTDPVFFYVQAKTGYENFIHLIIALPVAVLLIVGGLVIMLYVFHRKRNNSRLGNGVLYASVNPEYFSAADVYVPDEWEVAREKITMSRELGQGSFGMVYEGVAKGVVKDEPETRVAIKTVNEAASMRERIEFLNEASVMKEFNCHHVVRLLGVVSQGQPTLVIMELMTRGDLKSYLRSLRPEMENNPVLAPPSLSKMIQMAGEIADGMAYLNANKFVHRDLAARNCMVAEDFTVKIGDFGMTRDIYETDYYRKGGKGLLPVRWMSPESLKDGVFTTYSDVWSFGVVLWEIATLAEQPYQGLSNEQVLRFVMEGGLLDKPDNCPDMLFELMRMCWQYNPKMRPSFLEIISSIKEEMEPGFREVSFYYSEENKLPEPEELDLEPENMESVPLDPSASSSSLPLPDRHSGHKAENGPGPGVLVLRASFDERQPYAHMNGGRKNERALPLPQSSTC

Row | IC50 [µM] | SMILES
1 | 29 | COc1cccc(C2CC(N3CCCC3=O)c3cc(F)cc4c3N2CC4)c1 (centres unmarked) [Compound 1, 6-(2-oxopyrrolidin-1-yl)-8-fluoro-4-(3-methoxyphenyl)-1,2,5,6-tetrahydro-4H-pyrrolo[3,2,1-ij]quinoline]
2 | 5 | O=C1CCCN1C1CC(c2cccc(Cl)c2Cl)N2CCc3cccc1c32 (centres unmarked) [Compound 2]
3 | 1.3 | O=C1CCCN1C1CC(c2cccc(Br)c2)N2CCc3cccc1c32 (centres unmarked) [Compound 3]
4 | 1.5 | O=C1CCCN1C1CC(c2ccc(Cl)cc2F)N2CCc3cccc1c32 (centres unmarked) [Compound 4]
5 | 2.2 | CCc1ccc(C2CC(N3CCCC3=O)c3cccc4c3N2CC4)cc1 (centres unmarked) [Compound 5]
6 | 2.9 | O=C1CCCN1C1CC(c2cccc(Cl)c2)N2CCc3cccc1c32 (centres unmarked) [Compound 6]
7 | 4.5 | O=C1CCCN1C1CC(c2cccc(C(F)(F)F)c2)N2CCc3cccc1c32 (centres unmarked) [Compound 7]
8 | 1.6 | CC(C)(C)c1ccc(C2CC(N3CCCC3=O)c3cccc4c3N2CC4)cc1 (centres unmarked) [Compound 8]
9 | 2 | CC(C)c1ccc(C2CC(N3CCCC3=O)c3cccc4c3N2CC4)cc1 (centres unmarked) [Compound 9]
10 | 3.6 | Cc1cccc(C2CC(N3CCCC3=O)c3cccc4c3N2CC4)c1 (centres unmarked) [Compound 10]
11 | 3.5 | CCCc1ccc(C2CC(N3CCCC3=O)c3cccc4c3N2CC4)cc1 (centres unmarked) [Compound 11]
12 | 2.5 | O=C1CCCN1C1CC(c2ccccc2Br)N2CCc3cccc1c32 (centres unmarked) [Compound 12]
13 | 5.69 | O=C1CCCN1C1CC(c2cc(C(F)(F)F)cc(C(F)(F)F)c2)N2CCc3cccc1c32 (centres unmarked) [Compound 13]
14 | 6 | O=C1CCCN1C1CC(c2ccc(Cl)c([N+](=O)[O-])c2)N2CCc3cccc1c32 (centres unmarked) [Compound 14]
15 | 1.5 | O=C1CCCN1C1CC(c2ccccc2F)N2CCc3cccc1c32 (centres unmarked) [Compound 15]
16 | 3.1 | O=C1CCCN1C1CC(c2ccccc2Cl)N2CCc3cccc1c32 (centres unmarked) [Compound 16]
17 | 2.6 | Cc1ccc(C2CC(N3CCCC3=O)c3cccc4c3N2CC4)cc1 (centres unmarked) [Compound 17]
18 | 2.1 | O=C1CCCN1C1CC(c2ccc(Br)cc2F)N2CCc3cccc1c32 (centres unmarked) [Compound 18]
19 | 3.3 | Cc1ccc(C2CC(N3CCCC3=O)c3cccc4c3N2CC4)cc1[N+](=O)[O-] (centres unmarked) [Compound 19]
20 | 10 | O=C1CCCN1C1CC(c2cc(F)cc(C(F)(F)F)c2)N2CCc3cccc1c32 (centres unmarked) [Compound 20]
21 | 1.8 | CC(C)(C)OC(=O)Oc1ccc(C2CC(N3CCCC3=O)c3cccc4c3N2CC4)cc1 (centres unmarked) [Compound 21]
22 | 1.7 | O=C1CCCN1C1CC(c2ncc(C(F)(F)F)cc2Cl)N2CCc3cccc1c32 (centres unmarked) [Compound 22]

Row | IC50 [µM] | SMILES
23 | 4 | O=C1CCCN1C1CC(c2ccc(Cl)cc2Cl)N2CCc3cccc1c32 (centres unmarked) [Compound 23]
24 | 3.3 | O=C1CCCN1C1CC(c2cc(F)cc(F)c2)N2CCc3cccc1c32 (centres unmarked) [Compound 24]
25 | 0.19 | COc1cccc(C2CC(N3CCCC3=O)c3cccc4c3N2CC4)c1OC (centres unmarked) [Compound 25]
26 | 1.4 | CCOc1ccccc1C1CC(N2CCCC2=O)c2cccc3c2N1CC3 (centres unmarked) [Compound 26]
27 | 2.1 | COc1ccc(OC)c(C2CC(N3CCCC3=O)c3cccc4c3N2CC4)c1 (centres unmarked) [Compound 27]
28 | 2.1 | COc1cccc(OC)c1C1CC(N2CCCC2=O)c2cccc3c2N1CC3 (centres unmarked) [Compound 28]
29 | 1.1 | O=C1CCCN1C1CC(c2ccccc2OCc2ccccc2)N2CCc3cccc1c32 (centres unmarked) [Compound 29]
30 | 2.8 | O=C1CCCN1C1CC(c2cccc(OCc3ccccc3)c2)N2CCc3cccc1c32 (centres unmarked) [Compound 30]
31 | 2 | COc1cccc(C2CC(N3CCCC3=O)c3cccc4c3N2CC4)c1 (centres unmarked) [Compound 31]
32 | 6 | COc1ccccc1C1CC(N2CCCC2=O)c2cccc3c2N1CC3 (centres unmarked) [Compound 32]
33 | 2.1 | COc1ccc(Oc2cccc(C3CC(N4CCCC4=O)c4cccc5c4N3CC5)c2)cc1 (centres unmarked) [Compound 33]
34 | 4.8 | O=C1CCCN1C1CC(c2cccc3c2OCO3)N2CCc3cccc1c32 (centres unmarked) [Compound 34]
35 | 3.5 | CCOc1ccc(C2CC(N3CCCC3=O)c3cccc4c3N2CC4)c(OCC)c1C (centres unmarked) [Compound 35]
36 | 0.93 | COc1cc(C2CC(N3CCCC3=O)c3cccc4c3N2CC4)ccc1OC(=O)OC(C)(C)C (centres unmarked) [Compound 36]
37 | 0.26 | O=C1CCCN1C1CC(c2ccc(-c3ccccc3[N+](=O)[O-])o2)N2CCc3cccc1c32 (centres unmarked) [Compound 37]
38 | 2.1 | COc1cccc(C2CC(N(C)C(C)=O)c3cccc4c3N2CC4)c1 (centres unmarked) [Compound 38]
39 | 2.7 | O=C1CCCN1C1CC(c2cccc(OCc3ccccc3)c2)N2CCc3cc(F)cc1c32 (centres unmarked) [Compound 40]
40 | 4.5 | O=C1CCCN1C1CC(c2ccccc2Cl)N2CCc3cc(F)cc1c32 (centres unmarked) [Compound 41]
41 | 5.5 | O=C1CCCN1C1CC(c2cccc(-c3ccc(F)cc3)c2)N2CCc3cccc1c32 (centres unmarked) [Compound 42]
42 | 7.4 | O=C1CCCN1C1CC(c2cccc(-c3ccc(C(F)(F)F)cc3)c2)N2CCc3cccc1c32 (centres unmarked) [Compound 43]
43 | 21 | O=C1CCCN1C1CC(c2cccc(-c3cccc(OC(F)(F)F)c3)c2)N2CCc3cccc1c32 (centres unmarked) [Compound 44]
44 | 14 | O=C(O)c1ccc(C2CC(N3CCCC3=O)c3cccc4c3N2CC4)cc1 (centres unmarked) [Compound 45]
